In patent US20250250283A1, “COMPOUND CAPABLE OF REGULATING AND CONTROLLING ACTIVITY OF 15-PGDH, AND PREPARATION METHOD THEREFOR” (SCINNOHUB PHARMACEUTICAL CO., LTD., priority 2022, published 2025) one finds IC50 and PGE2 up-regulation rate data, which are given here for 25 compounds.

For one experiment, the target named is 15-PGDH enzyme (Homo sapiens (Human), UniProt P15428). Description: Detection of activity of 15-PGDH (enzyme inhibition, NADH fluorescence, PGF2α/β-NAD substrates). In kind it is biochemical. How it is done: Test Example 1: Detection of Activity of 15-PGDH Kinase
15-PGDH enzyme, sequence (P15428 whole entry): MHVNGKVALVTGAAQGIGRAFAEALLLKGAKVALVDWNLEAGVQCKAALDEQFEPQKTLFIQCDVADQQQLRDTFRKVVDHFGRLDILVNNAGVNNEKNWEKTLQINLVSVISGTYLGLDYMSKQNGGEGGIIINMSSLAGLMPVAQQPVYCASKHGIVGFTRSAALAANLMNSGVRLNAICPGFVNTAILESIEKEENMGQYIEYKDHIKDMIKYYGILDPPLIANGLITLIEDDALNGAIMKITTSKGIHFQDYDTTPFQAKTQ
• a. A solution of pH 7.5 containing 50 mM Tris-HCl, 0.01% Tween 20 was prepared with ultrapure water as a reaction buffer; • b. A 10 mM mother liquor of the compound to be tested was prepared with DMSO, and then the reaction buffer was used to dilute the mother liquor of the compound to be tested to obtain solution 1 of the compound to be tested at a concentration of 40,000 nM, and then the solution 1 of the compound to be tested was serially diluted into solutions 2-9 (or 2-12) of the compound to be tested at 9 (or 11) concentrations with a gradient difference of three-fold. 5 μL of each concentration of solutions of the compound to be tested was respectively taken and added into a 384-well plate as test wells; • c. 5 μL of the reaction buffer was added to the blank wells of the 384-well plate as positive control and blank control wells, respectively; • d. The reaction buffer was used to prepare a 15-PGDH protein solution at a concentration of 5 ng/μL, 5 μL of the 15-PGDH protein solution was taken and added to the test wells and positive control wells, and meanwhile 5 μL of the reaction buffer was added to the blank control wells, then the plate was centrifuged at 2000 rpm for 30 seconds; • e. The reaction buffer was used to prepare 5 mM β-NAD and 2 mM PGF2α, respectively, which were mixed at 1:1 by volume to obtain a substrate mixture, 10 μL of the substrate mixture was taken and added to the test wells, positive control wells and blank control wells to start the reaction; • f. The fluorescence signal value (Ex/Em=340/450) of each well was detected continuously by using a multifunctional microplate reader.
• a) Continuous fluorescence signal values were analyzed by using the “kinetic calculations-slope calculation method” in the PHERAstar Data analysis software to obtain the slope of each test well; • b) The inhibition rate % was calculated by using the following formula:
[formula] • c) Calculation of IC50 and plotting of inhibition rate-dose curves: IC50 values were calculated by fitting compound concentrations and corresponding inhibition rates with a nonlinear regression (dose response-variable slope) via using GraphPad Prism 6.0. The formula was shown below:
Y=Bottom+(Top−Bottom)/(1+10^((Log IC50−X)*HillSlope)), wherein X is a log value of a concentration of the compound, and Y is inhibition rate %.

The test system of another experiment is A549 cells. In words: Assay of intracellular PGE2 up-regulatory activity in IL-1β-stimulated A549 cells. In kind it is cell-based. Particulars: IL-1β induced, 8 h. How it is done: Test Example 2: Assay of Intracellular PGE2 Up-Regulatory Activity
a) A549 cells were inoculated in the 24-well plate, and after cell adhesion, IL-1β was added thereto for 16 h of stimulation to induce COX2 expression and PGE2 production. b) A solution of the compound to be tested was prepared with the culture medium and gradiently diluted to 3 concentrations of 10 nM, 300 nM and 10,000 nM or 7 concentrations of 0.64 nM, 3.2 nM, 16 nM, 80 nM, 400 nM, 2000 nM and 10,000 nM, and meanwhile the positive control group (only IL-1β was added to the cells for induction) and negative control group (only cells were added in the wells without any treatment) were set up. The cell supernatants were collected after 8 h of action, in which the positive control group was induced by IL-1β without treatment of the compounds, and the negative control group was neither stimulated by IL-1β, nor treated with the compounds. c) The PGE2 content of the samples was determined by Prostaglandin E2 Kit, and the fluorescence signal was detected by a multifunctional microplate reader (Ex/Em=337/620, 337/665).
a) A standard curve was plotted with the PGE2 standard in the Prostaglandin E2 Kit, and the PGE2 concentration was calculated by substituting with the fluorescence signal of the sample. b) The PGE2 up-regulation rate % was calculated by using the following formula: […]

[1] abbreviates: inhibitory activity against 15-PGDH enzyme, class symbols, read-out: IC50.

Like-named read-outs stand apart in the source and are kept apart here.

Regarding `Nc1c(C(=O)N2CCC(F)CC2)sc2c1C1=NCCN1C(c1ccccc1)=N2` [Compound 8, (9-amino-5-phenyl-2,3-dihydroimidazo[1,2-c]thieno[3,2-e]pyrimidin-8-yl)(4-fluoropiperidin-1-yl)methanone], at 15-PGDH enzyme (setting [1]), the IC50 (usually the point on the concentration scale where inhibition reaches its midpoint) lay within 10 to 25 nM.
Take `Nc1c(C(=O)N2CCC(F)CC2)sc2nc(-c3ccccc3)n3ccnc3c12` [Example 1, (9-amino-5-phenylimidazo[1,2-c]thieno[3,2-e]pyrimidin-8-yl)(4-fluoropiperidin-1-yl)methanone]: the IC50 was < 3 nM at 15-PGDH enzyme (setting [1]) and < 1.5 nM at 15-PGDH enzyme (stated in text as bounds, read-out: IC50 value of the inhibitory activity against 15-PGDH enzyme).
Take `Nc1c(C(=O)N2CCC(F)CC2)sc2nc(-c3ccccc3)n3cc(C(F)(F)F)nc3c12` [Example 2, (9-amino-5-phenyl-2-(trifluoromethyl)imidazo[1,2-c]thieno[3,2-e]pyrimidin-8-yl)(4-fluoropiperidin-1-yl)methanone]: the IC50 on 15-PGDH enzyme (setting [1]) fell in the range of 3 to 10 nM.
As to `Nc1c(C(=O)N2CCCCC2)sc2nc(-c3ccncc3)n3ccnc3c12` [Example 3, (9-amino-5-(pyridin-4-yl)imidazo[1,2-c]thieno[3,2-e]pyrimidin-8-yl)(piperidin-1-yl)methanone], on 15-PGDH enzyme (setting [1]), the IC50 was < 3 nM.
Take `O=C(c1sc2nc(-c3ccccc3)n3ccnc3c2c1I)N1CCCCC1` [Example 4, (9-iodo-5-phenylimidazo[1,2-c]thieno[3,2-e]pyrimidin-8-yl)(piperidin-1-yl)methanone]: the IC50 on 15-PGDH enzyme (setting [1]) is < 3 nM.
Same read-out and setting: for `Nc1c(C(=O)N2CCCCC2)sc2nc(-c3ccccc3)n3cnnc3c12` [Example 5, (9-amino-5-phenylthieno[3,2-e][1,2,4]triazolo[4,3-c]pyrimidin-8-yl)(piperidin-1-yl)methanone] the value was 3 to 10 nM; for `COc1c(C(=O)N2CCCCC2)sc2nc(-c3ccccc3)n3ccnc3c12` [Example 6, (9-methoxy-5-phenylimidazo[1,2-c]thieno[3,2-e]pyrimidin-8-yl)(piperidin-1-yl)methanone], 10 to 25 nM.
Regarding `Nc1c(C(=O)N2CCCCC2)sc2nc(-c3ccccc3)n3ccnc3c12` [Example 7], the IC50 at 15-PGDH enzyme (setting [1]) is < 3 nM.
On to `Nc1c(C(=O)N2CCC(F)(F)CC2)sc2nc(-c3ccccc3)n3ccnc3c12` [Example 8], for which the PGE2 up-regulation rate is on record as 483% in the experiment with A549 cells (compound 16 nM), 520% with A549 cells (compound 80 nM) and 770% in the experiment on A549 cells (compound 400 nM). Also, the IC50 at 15-PGDH enzyme (setting [1]) fell in the range of 3 to 10 nM.
The compound `Cc1cn2c(-c3ccccc3)nc3sc(C(=O)N4CCC(F)CC4)c(N)c3c2n1` [Example 9] yielded a PGE2 up-regulation rate in the experiment with A549 cells (compound 400 nM) of 333%. The IC50 on 15-PGDH enzyme (setting [1]) lay in the range of 3 to 10 nM.
Consider `Nc1c(C(=O)N2CCCCC2)sc2nc(-c3ccccn3)n3ccnc3c12` [Example 10], for which the IC50 on 15-PGDH enzyme (setting [1]) lay within 3 to 10 nM.
Consider `O=C(c1sc2nc(-c3ccccc3)n3ccnc3c2c1C(F)(F)F)N1CCCCC1` [Example 12], for which the IC50 on 15-PGDH enzyme (setting [1]) lay within 3 to 10 nM.
In the case of `Cc1c(C(=O)N2CCCCC2)sc2nc(-c3ccccc3)n3ccnc3c12` [Example 13], at 15-PGDH enzyme (setting [1]), the IC50 was in the range of 3 to 10 nM.
On to `O=C(c1sc2nc(-c3ccccc3)n3ccnc3c2c1C1CC1)N1CCCCC1` [Example 14], for which the IC50 at 15-PGDH enzyme (setting [1]) fell in the range of 3 to 10 nM.
`Nc1c(C(=O)N2CCCCC2)sc2nc(-c3cccnc3)n3ccnc3c12` [Example 15]: at 15-PGDH enzyme (setting [1]), the IC50 is < 3 nM.
`CCN(CC)C(=O)c1sc2nc(-c3ccccc3)n3ccnc3c2c1N` [Example 16]: the IC50 on 15-PGDH enzyme (setting [1]) lay within 25 to 50 nM.
For `Nc1c(C(=O)N2CCCC2)sc2nc(-c3ccccc3)n3ccnc3c12` [Example 17], on 15-PGDH enzyme (setting [1]), the IC50 is 25 to 50 nM.
Same read-out and setting: in the case of `O=C(c1cc2c(nc(-c3ccccc3)n3ccnc23)s1)N1CCCCC1` [Example 18] it was 10 to 25 nM; in that of `Nc1c(C(=O)N2CCCCC2)sc2nc(-c3nccs3)n3ccnc3c12` [Example 19], 10 to 25 nM.
For the compound `Nc1c(C(=O)N2CCCCC2)sc2nc(-c3ccc4ccccc4n3)n3ccnc3c12` [Example 20], the IC50 on 15-PGDH enzyme (setting [1]) fell in the range of 10 to 25 nM.
For `Nc1c(C(=O)N2CCCCC2)sc2nc(-c3cnccn3)n3ccnc3c12` [Example 21], in the experiment with A549 cells (compound 400 nM), the PGE2 up-regulation rate amounted to 321%. Besides, the IC50 on 15-PGDH enzyme (setting [1]) was < 3 nM.
On to `N#Cc1c(C(=O)N2CCCCC2)sc2nc(-c3ccccc3)n3ccnc3c12` [Example 22], for which the IC50 at 15-PGDH enzyme (setting [1]) is 3 to 10 nM.
On to `CC(C)c1c(C(=O)N2CCCCC2)sc2nc(-c3ccccc3)n3ccnc3c12` [Example 23, (9-isopropyl-5-phenylimidazo[1,2-c]thieno[3,2-e]pyrimidin-8-yl)(piperidin-1-yl)methanone], for which the IC50 on 15-PGDH enzyme (setting [1]) was 3 to 10 nM.
As to `CN1Cc2cc(-c3nc4sc(C(=O)N5CCCCC5)c(N)c4c4nccn34)ccc2C1=O` [Example 24, 5-(9-amino-8-(piperidine-1-carbonyl)imidazo[1,2-c]thieno[3,2-e]pyrimidin-5-yl)-2-methylisoindol-1-one], the figures for the PGE2 up-regulation rate in the experiment with A549 cells (compound 3.2 nM), with A549 cells (compound 16 nM) and in the experiment on A549 cells (compound 80 nM) were 568%, 461% and 473%, respectively. In addition, on 15-PGDH enzyme (setting [1]), the IC50 is < 3 nM.
Take `Cn1ccc2cc(-c3nc4sc(C(=O)N5CCCCC5)c(N)c4c4nccn34)ccc2c1=O` [Example 25, 6-(9-amino-8-(piperidin-1-carbonyl)imidazo[1,2-c]thieno[3,2-e]pyrimidin-5-yl)-2-methylisoquinolin-1(2H)-one]: the PGE2 up-regulation rate came to 513% in the experiment with A549 cells (compound 3.2 nM), 782% with A549 cells (compound 16 nM) and 741% with A549 cells (compound 80 nM). Further, on 15-PGDH enzyme (setting [1]), the IC50 is < 3 nM.
